Measured values as given in PMC6102642, “Effect of Noncanonical Amino Acids on Protein–Carbohydrate Interactions: Structure, Dynamics, and Carbohydrate Affinity of a Lectin Engineered with Fluorinated Tryptophan Analogs” (ACS Chemical Biology, 2018).

Legend:
Type in all cases: binding
Conditions in all cases: SD
RSL = target: T1, RSL (Ralstonia solanacearum, UniProt A0A0S4TLR1); assay: biochemical
T1 construct: gene E7Z57_08365

RSL[4FW] = target: T2, RSL[4FW]
T2 construct: all seven Trp replaced by 4-fluorotryptophan (85% of protein 7/7 labeled); from pQE80L-RSL in E. coli BWEC47; homotrimer

RSL[5FW] = target: T3, RSL[5FW]
T3 construct: all seven Trp replaced by 5-fluorotryptophan (86% of protein 7/7 labeled); from pQE80L-RSL in E. coli BWEC47; homotrimer

RSL[7FW] = target: T4, RSL[7FW]
T4 construct: all seven Trp replaced by 7-fluorotryptophan (84% of protein 7/7 labeled); from pQE80L-RSL in E. coli BWEC47; homotrimer

| Compound | Kd (RSL) [µM] | Kd (RSL[4FW]) [µM] | Kd (RSL[5FW]) [µM] | Kd (RSL[7FW]) [µM] |
| --- | --- | --- | --- | --- |
| CC(=O)N[C@H]1[C@H](O[C@H]2[C@@H](O)[C@@H](CO)OC(O)[C@@H]2O)O[C@H](CO)[C@@H](O[C@@H]2O[C@H](CO)[C@H](O)[C@H](O)[C@H]2O[C@@H]2O[C@@H](C)[C@@H](O)[C@@H](O)[C@@H]2O)[C@@H]1O (stereo partly drawn) [HType2, blood group H type 2 antigen tetrasaccharide, Fucα1–2Galβ1–4GlcNAcβ1–3Gal] | 6.36 | 8.18 | 6.06 | 4.35 |
| CC(=O)N[C@H]1[C@H](O[C@H]2[C@@H](O)[C@@H](CO)OC(O)[C@@H]2O)O[C@H](CO)[C@@H](O[C@@H]2O[C@H](CO)[C@H](O)[C@H](O)[C@H]2O)[C@@H]1O[C@@H]1O[C@@H](C)[C@@H](O)[C@@H](O)[C@@H]1O (stereo partly drawn) [LeX, lewis X tetrasaccharide, Galβ1–4[Fucα1–3]GlcNAcβ1–3Gal] | 32.5 | 67.8 | 52.4 | 52.1 |
| CO[C@@H]1O[C@@H](C)[C@@H](O)[C@@H](O)[C@@H]1O [αMeFuc, methyl α-L-fucopyranoside] | 1.21 | 1.73 | 0.889 | 1.11 |
